Values after ≈ are worked out from the molar mass of the structure shown.
Experiments:
Assay type in all cases: cell-based
[1] = test system: Enterobacter cloacae E-74; assay: Comparison test of anti-bacterial activity (MIC); details: E74, 18 h, comparison R1 = CH2F vs CH3
Experimental: (§1) MIC (μg/ml) were determined by an agar dilution method [Chemotherapy (Japan), 29, 76-79, 1981]. Overnight cultures of the bacterial strains in Mueller-Hinton broth were diluted to final concentration of about 10^6 CFU/ml, and 5 μl of each bacterial suspension was spotted onto Mueller-Hinton agar plates that contained twofold serial dilutions of antibiotics. MICs were measured after incubation for 18 hours at 37° C.
(§2) Comparison tests of the anti-bacterial activities were conducted between the compounds of the following formula according to the present invention and the corresponding control compounds wherein R1 represents methyl group. Measurements of MIC are the same as described in the above item 2.

[2] = test system: Xantomonas maltophilia E 04004; assay: Comparison test of anti-bacterial activity (MIC); details: 18 h, comparison R1 = CH2F vs CH3
Experimental: as §1, §2

Staph. aureus E 31106 = assay: Comparison test of anti-bacterial activity (MIC); details: Staphylococcus aureus, E31106, 18 h, comparison R1 = CH2F vs CH3
Experimental: as §1, §2

Proteus vulgaris E 08042 = assay: Comparison test of anti-bacterial activity (MIC); details: E08042, 18 h, comparison R1 = CH2F vs CH3
Experimental: as §1, §2

Escher. coli NIHJ = assay: Anti-bacterial activity (MIC), agar dilution; details: Escherichia coli, 18 h, Escher. coli NIHJ; agar dilution, about 10^6 CFU/ml, 18 hours, 37° C.; read-out: MIC
In short: (§3)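 MIC values (μg/ml) come from agar dilution: strains grown overnight in Mueller-Hinton broth, diluted to roughly 10^6 CFU/ml, spotted on Mueller-Hinton agar containing twofold serial antibiotic dilutions, and read after 18 hours at 37° C.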

Kleb. pneumoniae EK-6 = assay: Anti-bacterial activity (MIC), agar dilution; details: Klebsiella pneumoniae, EK6, 18 h, Kleb. pneumoniae EK-6; agar dilution, about 10^6 CFU/ml, 18 hours, 37° C.; read-out: MIC
In short: as §3

[3] = test system: Morganella morganii EP-14; assay: Anti-bacterial activity (MIC), agar dilution; details: Morganella morganii, EP14, 18 h, about 10^6 CFU/ml, 37° C., read-out: MIC
In short: as §3

Pseud. aeruginosa EP-01 = assay: Anti-bacterial activity (MIC), agar dilution; details: Pseudomonas aeruginosa, EP01, 18 h, Pseud. aeruginosa EP-01; agar dilution, about 10^6 CFU/ml, 18 hours, 37° C.; read-out: MIC
In short: as §3

Staph. aureus 209-P = assay: Anti-bacterial activity (MIC), agar dilution; details: Staphylococcus aureus, 209P, 18 h, Staph. aureus 209-P; agar dilution, about 10^6 CFU/ml, 18 hours, 37° C.; read-out: MIC
In short: as §3

Ser. marcescens ES-75 = assay: Anti-bacterial activity (MIC), agar dilution; details: Serratia marcescens, ES75, 18 h, Ser. marcescens ES-75; agar dilution, about 10^6 CFU/ml, 18 hours, 37° C.; read-out: MIC
In short: as §3

Row | Structure (SMILES) | MIC [1] | MIC [2] | MIC (Staph. aureus E 31106) | MIC (Proteus vulgaris E 08042) | MIC (Escher. coli NIHJ) | MIC (Kleb. pneumoniae EK-6) | MIC [3] | MIC (Pseud. aeruginosa EP-01) | MIC (Staph. aureus 209-P) | MIC (Ser. marcescens ES-75)
1 | CO/N=C(\C(=O)N[C@@H]1C(=O)N2C(C(=O)[O-])=C(/C=C/C[n+]3ccc(C(=O)O)cc3)CS[C@H]12)c1nsc(N)n1 [CH3 (Control) to Example 125, reference compound] | 3.13 µg/mL (≈ 5.74 µM) | 50 µg/mL (≈ 91.6 µM) | 12.5 µg/mL (≈ 22.9 µM) | 12.5 µg/mL (≈ 22.9 µM) | – | – | – | – | – | –
2 | CO/N=C(\C(=O)N[C@@H]1C(=O)N2C(C(=O)[O-])=C(/C=C/C[N+]3(C)CCCC3)CS[C@H]12)c1nsc(N)n1 [CH3 (Control) to Example 126, reference compound] | 0.1 µg/mL (≈ 0.197 µM) | 100 µg/mL (≈ 197 µM) | – | 1.56 µg/mL (≈ 3.07 µM) | – | – | – | – | – | –
3 | CO/N=C(\C(=O)N[C@@H]1C(=O)N2C(C(=O)[O-])=C(/C=C/C[n+]3ccc(C(N)=O)cc3)CS[C@H]12)c1nsc(N)n1 [CH3 (Control) to Example 127, reference compound] | 0.4 µg/mL (≈ 0.735 µM) | 50 µg/mL (≈ 91.8 µM) | 6.25 µg/mL (≈ 11.5 µM) | 3.13 µg/mL (≈ 5.75 µM) | – | – | – | – | – | –
4 | CO/N=C(\C(=O)N[C@@H]1C(=O)N2C(C(=O)[O-])=C(/C=C/C[N+](C)(C)C)CS[C@H]12)c1nsc(N)n1 [CH3 (Control) to Example 128, reference compound] | 0.2 µg/mL (≈ 0.415 µM) | > 100 µg/mL | 6.25 µg/mL (≈ 13 µM) | 6.25 µg/mL (≈ 13 µM) | – | – | – | – | – | –
5 | Nc1nc(/C(=N/OCF)C(=O)N[C@@H]2C(=O)N3C(C(=O)[O-])=C(/C=C/C[n+]4ccc(C(=O)O)cc4)CS[C@H]23)ns1 [Example 125, 7β-[2-(5-Amino-1,2,4-thiadiazol-3-yl)-(Z)-2-fluoromethoxyiminoacetamido]-3-[(E)-3-(4-carboxypyridinio)-1-propen-1-yl]-3-cephem-4-carboxylate] | 0.4 µg/mL (≈ 0.71 µM) | 25 µg/mL (≈ 44.4 µM) | 6.25 µg/mL (≈ 11.1 µM) | 0.2 µg/mL (≈ 0.355 µM) | ≤ 0.025 µg/mL | ≤ 0.025 µg/mL | ≤ 0.025 µg/mL | 1.56 µg/mL (≈ 2.77 µM) | 0.4 µg/mL (≈ 0.71 µM) | ≤ 0.025 µg/mL
6 | C[N+]1(C/C=C/C2=C(C(=O)[O-])N3C(=O)[C@@H](NC(=O)/C(=N\OCF)c4nsc(N)n4)[C@H]3SC2)CCCC1 [Example 126, 7β-[2-(5-Amino-1,2,4-thiadiazol-3-yl)-(Z)-2-fluoromethoxyiminoacetamido]-3-[(E)-3-(1-methylpyrrolidinio)-1-propen-1-yl]-3-cephem-4-carboxylate] | 0.05 µg/mL (≈ 0.0951 µM) | 12.5 µg/mL (≈ 23.8 µM) | 1.56 µg/mL (≈ 2.97 µM) | 0.05 µg/mL (≈ 0.0951 µM) | ≤ 0.025 µg/mL | ≤ 0.025 µg/mL | ≤ 0.025 µg/mL | 0.8 µg/mL (≈ 1.52 µM) | 0.1 µg/mL (≈ 0.19 µM) | 0.05 µg/mL (≈ 0.0951 µM)
7 | NC(=O)c1cc[n+](C/C=C/C2=C(C(=O)[O-])N3C(=O)[C@@H](NC(=O)/C(=N\OCF)c4nsc(N)n4)[C@H]3SC2)cc1 [Example 127, 7β-[2-(5-Amino-1,2,4-thiadiazol-3-yl)-(Z)-2-fluoromethoxyiminoacetamido]-3-[(E)-3-(4-carbamoylpyridinio)-1-propen-1-yl]-3-cephem-4-carboxylate] | ≤ 0.025 µg/mL | 6.25 µg/mL (≈ 11.1 µM) | 3.13 µg/mL (≈ 5.56 µM) | ≤ 0.025 µg/mL | ≤ 0.025 µg/mL | ≤ 0.025 µg/mL | ≤ 0.025 µg/mL | 0.8 µg/mL (≈ 1.42 µM) | 0.1 µg/mL (≈ 0.178 µM) | 0.05 µg/mL (≈ 0.0889 µM)
8 | C[N+](C)(C)C/C=C/C1=C(C(=O)[O-])N2C(=O)[C@@H](NC(=O)/C(=N\OCF)c3nsc(N)n3)[C@H]2SC1 [Example 128, 7β-[2-(5-Amino-1,2,4-thiadiazol-3-yl)-(Z)-2-fluoromethoxyiminoacetamido]-3-[(E)-3-(trimethylammonio)-1-propen-1-yl]-3-cephem-4-carboxylate] | 0.1 µg/mL (≈ 0.2 µM) | 25 µg/mL (≈ 50 µM) | 3.13 µg/mL (≈ 6.27 µM) | 0.1 µg/mL (≈ 0.2 µM) | 0.05 µg/mL (≈ 0.1 µM) | 0.05 µg/mL (≈ 0.1 µM) | 0.05 µg/mL (≈ 0.1 µM) | 0.8 µg/mL (≈ 1.6 µM) | 0.2 µg/mL (≈ 0.4 µM) | 0.1 µg/mL (≈ 0.2 µM)

Reference: patent US4921850A, “3-propenylcephem derivative” (Eisai Co., Ltd., priority 1986, dated 1990)
